Reference: ChEMBL document CHEMBL4376858, “Structure-Activity Relationships of Novel Thiazole-Based Modafinil Analogues Acting at Monoamine Transporters” (J Med Chem, 2020)
Activity calls are given as the source filed them. Unless noted, the calls are words filed in the database; no cut-off is given here.

Key:
[1] = test system: Rattus norvegicus; assay: Increase in extracellular dopamine level in Sprague-Dawley rat nucleus accumbens in brain at 10 mg/kg, ip measured after 50 mins by RP-HPLC analysis based microdialysis method relative to control; format: functional
[2] = Plasma concentration in Sprague-Dawley rat at 7.5 mg/kg, ip compound dissolved in 40% Kolliphor-EL in water measured after 7 hrs by LC-MS/MS analysis; format: ADME, organism-based
[3] = Neurotoxicity in rat cortical neuron assessed as inhibition of neurite outgrowth by measuring mean neurite average length incubated for 72 hrs by Hoechst 33342 staining based ArrayScan analysis; format: toxicity, cell-based, Cortical neurone; details: rat cortical neurons
[4] = Ratio of IC50 for neurotoxicity against rat cortical neuron assessed as inhibition of neurite total length per neuron by ArrayScan analysis to IC50 for wild type human dopamine transporter expressed in HEK293 cells
[5] = Half life in Sprague-Dawley rat at 7.5 mg/kg, ip compound dissolved in 40% Kolliphor-EL in water by LC-MS/MS analysis; format: ADME, organism-based; details: in vivo
[6] = Neurotoxicity in rat cortical neuron assessed as inhibition of valid neuron count incubated for 72 hrs by Hoechst 33342 staining based ArrayScan analysis; format: toxicity, cell-based, Cortical neurone; details: rat cortical neurons
[7] = Drug level in Sprague-Dawley rat brain at 7.5 mg/kg, ip compound dissolved in 40% Kolliphor-EL in water measured after 7 hrs by LC-MS/MS analysis; format: ADME, organism-based; details: read-out: Ct
[8] = Plasma concentration in Sprague-Dawley rat at 7.5 mg/kg, ip compound dissolved in 40% Kolliphor-EL in water measured after 1 hr by LC-MS/MS analysis; format: ADME, organism-based
[9] = target: Sodium-dependent noradrenaline transporter (Homo sapiens, UniProt P23975); assay: Inhibition of wild type human NET expressed in HEK293 cells assessed as inhibition of [3H]-MPP+ reuptake preincubated for 5 mins followed by [3H]MPP+ addition and measured after 3 mins by liquid scintillation counting analysis; format: cell-based; details: read-out: IC50
[10] = target: T1, Sodium-dependent dopamine transporter (Homo sapiens, UniProt Q01959); assay: Inhibition of human DAT expressed in HEK293 cells preloaded with [3H]-MPP+ assessed as reduction in D-amphetamine-induced tritium efflux at 10 uM treated with compound prior to amphetamine challenge measured every 4 mins by liquid scintillation counting analysis; format: cell-based
[11] = Drug level in Sprague-Dawley rat brain at 7.5 mg/kg, ip compound dissolved in 40% Kolliphor-EL in water measured after 3 hrs by LC-MS/MS analysis; format: ADME, organism-based; details: read-out: Ct
[12] = Cardiotoxicity in human Cor.4U hiPSC-CM cells assessed as effect on action potential duration at 10 uM measured after 30 mins by FluoVolt dye based fluorescence assay; format: toxicity; details: 0.5 h
[13] = Drug level in Sprague-Dawley rat brain at 7.5 mg/kg, ip compound dissolved in 40% Kolliphor-EL in water measured after 1 hr by LC-MS/MS analysis; format: ADME, organism-based; details: read-out: Ct
[14] = Plasma concentration in Sprague-Dawley rat at 7.5 mg/kg, ip compound dissolved in 40% Kolliphor-EL in water measured after 10 hrs by LC-MS/MS analysis; format: ADME, organism-based
[15] = Cardiotoxicity in human Cor.4U hiPSC-CM cells assessed as effect on action potential shape at 10 uM measured after 30 mins by FluoVolt dye based fluorescence assay; format: toxicity; details: 0.5 h
[16] = AUC(0 to infinity) in Sprague-Dawley rat at 7.5 mg/kg, ip compound dissolved in 40% Kolliphor-EL in water by LC-MS/MS analysis; format: ADME, organism-based; parameters: dose 7.5 mg/kg, time infinity, route intraperitoneal; details: in vivo
[17] = Ratio of IC50 for neurotoxicity against rat cortical neuron assessed as inhibition of valid neuron count by ArrayScan analysis to IC50 for wild type human dopamine transporter expressed in HEK293 cells
[18] = target: T1, Sodium-dependent dopamine transporter; assay: Potency index, ratio of (R)-modafinil IC50 to compound IC50 for wild type human dopamine transporter expressed in HEK293 cells assessed as inhibition of [3H]dopamine reuptake preincubated for 5 mins followed by [3H]dopamine addition and measured after 1 min by liquid scintillation analysis; format: cell-based
[19] = Neurotoxicity in rat cortical neuron assessed as inhibition of neurite total length per neuron incubated for 72 hrs by Hoechst 33342 staining based ArrayScan analysis; format: toxicity, cell-based, Cortical neurone; details: rat cortical neurons
[20] = target: T1, Sodium-dependent dopamine transporter; assay: Inhibition of wild type human dopamine transporter expressed in HEK293 cells assessed as inhibition of [3H]dopamine reuptake preincubated for 5 mins followed by [3H]dopamine addition and measured after 1 min by liquid scintillation analysis; format: cell-based; details: read-out: IC50
[21] = Plasma concentration in Sprague-Dawley rat at 7.5 mg/kg, ip compound dissolved in 40% Kolliphor-EL in water measured after 3 hrs by LC-MS/MS analysis; format: ADME, organism-based
[22] = test system: Rattus norvegicus; assay: Increase in extracellular dopamine level in Sprague-Dawley rat nucleus accumbens in brain at 1 mg/kg, ip measured after 50 mins by RP-HPLC analysis based microdialysis method; format: functional, organism-based
[23] = Ratio of IC50 for neurotoxicity against rat cortical neuron assessed as inhibition of mean neurite average length by ArrayScan analysis to IC50 for wild type human dopamine transporter expressed in HEK293 cells
[24] = Cardiotoxicity in human Cor.4U hiPSC-CM cells assessed as early after depolarization at 10 uM measured after 30 mins by FluoVolt dye based fluorescence assay; format: toxicity; details: 0.5 h
[25] = target: Sodium-dependent serotonin transporter (Homo sapiens, UniProt P31645); format: cell-based, HEK293; details: hek293
Description: Inhibition of wild type human SERT expressed in HEK293 cells assessed as inhibition of [3H]-5HT reuptake preincubated for 5 mins followed by [3H]5HT addition and measured after 1 min by liquid scintillation counting analysis

[26] = target: T1, Sodium-dependent dopamine transporter; assay: Inhibition of human DAT expressed in HEK293 cells preloaded with [3H]-MPP+ assessed as decrease in tritium efflux at 10 uM measured every 4 mins by liquid scintillation counting analysis; format: cell-based
[27] = target: T1, Sodium-dependent dopamine transporter; assay: Potency index, ratio of modafinil IC50 to compound IC50 for wild type human dopamine transporter expressed in HEK293 cells assessed as inhibition of [3H]dopamine reuptake preincubated for 5 mins followed by [3H]dopamine addition and measured after 1 min by liquid scintillation analysis; format: cell-based
[28] = Drug level in Sprague-Dawley rat brain at 7.5 mg/kg, ip compound dissolved in 40% Kolliphor-EL in water measured after 10 hrs by LC-MS/MS analysis; format: ADME, organism-based; details: in vivo, BLD = below limit of detection

T1 sequence (Q01959 whole entry): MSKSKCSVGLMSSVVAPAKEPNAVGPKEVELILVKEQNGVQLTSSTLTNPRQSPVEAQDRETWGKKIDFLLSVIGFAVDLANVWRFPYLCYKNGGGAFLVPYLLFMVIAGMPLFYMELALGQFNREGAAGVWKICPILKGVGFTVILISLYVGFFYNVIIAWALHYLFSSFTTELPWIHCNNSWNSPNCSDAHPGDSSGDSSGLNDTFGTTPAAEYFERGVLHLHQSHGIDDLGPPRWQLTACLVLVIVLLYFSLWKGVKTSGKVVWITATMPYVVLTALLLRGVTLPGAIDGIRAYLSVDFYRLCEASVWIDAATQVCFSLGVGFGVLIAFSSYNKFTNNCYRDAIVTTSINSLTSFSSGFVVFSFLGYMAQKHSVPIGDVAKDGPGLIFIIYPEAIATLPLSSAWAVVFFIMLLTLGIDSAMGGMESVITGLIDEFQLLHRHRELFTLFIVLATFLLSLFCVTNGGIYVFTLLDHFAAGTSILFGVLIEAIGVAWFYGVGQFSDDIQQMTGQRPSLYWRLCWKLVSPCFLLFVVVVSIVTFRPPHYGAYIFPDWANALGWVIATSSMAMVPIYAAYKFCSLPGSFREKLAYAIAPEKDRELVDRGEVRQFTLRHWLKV
Chain of Sodium-dependent serotonin transporter (P31645 whole entry): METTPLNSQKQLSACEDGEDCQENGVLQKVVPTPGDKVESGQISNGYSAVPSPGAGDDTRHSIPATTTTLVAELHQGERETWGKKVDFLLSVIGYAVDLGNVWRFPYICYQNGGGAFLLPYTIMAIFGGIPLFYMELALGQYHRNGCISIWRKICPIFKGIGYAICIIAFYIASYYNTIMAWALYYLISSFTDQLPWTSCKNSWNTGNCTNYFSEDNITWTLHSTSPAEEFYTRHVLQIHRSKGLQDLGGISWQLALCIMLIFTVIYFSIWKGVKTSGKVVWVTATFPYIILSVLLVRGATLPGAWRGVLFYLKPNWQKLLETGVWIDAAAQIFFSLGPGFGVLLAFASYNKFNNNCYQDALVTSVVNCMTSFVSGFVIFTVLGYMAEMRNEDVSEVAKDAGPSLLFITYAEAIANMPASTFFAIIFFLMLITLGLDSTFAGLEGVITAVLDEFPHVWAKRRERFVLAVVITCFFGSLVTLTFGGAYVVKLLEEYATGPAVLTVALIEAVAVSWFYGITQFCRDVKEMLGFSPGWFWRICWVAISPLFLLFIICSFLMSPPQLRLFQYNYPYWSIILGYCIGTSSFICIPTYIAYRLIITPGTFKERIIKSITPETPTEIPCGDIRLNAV
Chain of Sodium-dependent noradrenaline transporter (P23975 whole entry): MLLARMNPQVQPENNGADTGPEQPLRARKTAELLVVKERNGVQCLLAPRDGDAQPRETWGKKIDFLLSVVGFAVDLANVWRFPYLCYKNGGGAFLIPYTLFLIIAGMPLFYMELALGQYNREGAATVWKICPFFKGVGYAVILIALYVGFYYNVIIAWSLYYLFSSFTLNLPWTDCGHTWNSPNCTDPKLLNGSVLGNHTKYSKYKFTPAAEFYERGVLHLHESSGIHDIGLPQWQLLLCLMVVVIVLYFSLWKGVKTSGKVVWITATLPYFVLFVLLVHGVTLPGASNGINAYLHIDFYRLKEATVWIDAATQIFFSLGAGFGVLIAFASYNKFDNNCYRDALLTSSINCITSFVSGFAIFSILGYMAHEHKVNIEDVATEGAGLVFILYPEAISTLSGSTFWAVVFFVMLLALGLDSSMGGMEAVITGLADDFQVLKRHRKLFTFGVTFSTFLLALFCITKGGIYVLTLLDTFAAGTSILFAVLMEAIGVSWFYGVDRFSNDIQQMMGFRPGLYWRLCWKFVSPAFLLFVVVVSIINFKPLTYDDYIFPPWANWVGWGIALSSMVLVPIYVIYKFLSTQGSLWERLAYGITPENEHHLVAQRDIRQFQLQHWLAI

## [O-][S@@+](Cc1cscn1)[C@@H](c1ccccc1)c1ccc(Br)cc1
[1]
  Activity: 20%
[2]
  concentration at 7 h: 89.6 nM
[3]
  IC50 at 72 h: > 100 µM
[4]
  Ratio IC50: >100
[5]
  half-life: 1.6 h
[6]
  IC50 at 72 h: > 100 µM
[7]
  concentration at 7 h: 44.3 nM
[8]
  concentration at 1 h: 2200 nM
[9]
  IC50: 73.3 µM
[10]
  inhibition: Active
[11]
  concentration at 3 h: 409 nM
[12]
  Activity: Non-Toxic
[13]
  concentration at 1 h: 803 nM
[14]
  concentration at 10 h: 23.8 nM
[15]
  Activity: Non-Toxic
[16]
  AUC(0-inf): 5.84 µM·h
[17]
  Ratio IC50: >100
[18]
  Ratio IC50: 10
[19]
  IC50 at 72 h: > 100 µM
[20]
  IC50: 0.65 µM
[21]
  concentration at 3 h: 1210 nM
[22]
  Activity: inactive
[23]
  Ratio IC50: >100
[24]
  Activity: Non-Toxic
[25]
  IC50: Not Active
[26]
  inhibition: Active
[27]
  Ratio IC50: 20
[28]
  Ct: Bld
